The text below walks through data of patent US20170050939A1, “SMALL MOLECULE INHIBITORS OF G PROTEIN COUPLED RECEPTOR 6 KINASE POLYPEPTIDES” (Mayo Foundation for Medical Education and Research, priority 2014, published 2017).

For this experiment, the target named is T1, GRK6, recombinant full-length GST-tagged human protein (Homo sapiens, UniProt P43250).
T1 construct: GRK6, recombinant full-length GST-tagged human protein; GST
As to the kind of experiment: GRK6 IC50 determination (8-point concentration-response). The experiment is classed as biochemical. The source says: Two hundred forty compounds were further characterized by determining IC50 values in a GRK6 assay. This screen has been previously described in WO 2013/063458, which is incorporated by reference in its entirety herein.

Where [1] appears, read: 20 nM GRK6, 12 μM ATP (Km), 1 μM Peptide 216, 7 h incubation.

Where two headings read alike, the source gives them in different places.

T1 sequence (P43250 whole entry): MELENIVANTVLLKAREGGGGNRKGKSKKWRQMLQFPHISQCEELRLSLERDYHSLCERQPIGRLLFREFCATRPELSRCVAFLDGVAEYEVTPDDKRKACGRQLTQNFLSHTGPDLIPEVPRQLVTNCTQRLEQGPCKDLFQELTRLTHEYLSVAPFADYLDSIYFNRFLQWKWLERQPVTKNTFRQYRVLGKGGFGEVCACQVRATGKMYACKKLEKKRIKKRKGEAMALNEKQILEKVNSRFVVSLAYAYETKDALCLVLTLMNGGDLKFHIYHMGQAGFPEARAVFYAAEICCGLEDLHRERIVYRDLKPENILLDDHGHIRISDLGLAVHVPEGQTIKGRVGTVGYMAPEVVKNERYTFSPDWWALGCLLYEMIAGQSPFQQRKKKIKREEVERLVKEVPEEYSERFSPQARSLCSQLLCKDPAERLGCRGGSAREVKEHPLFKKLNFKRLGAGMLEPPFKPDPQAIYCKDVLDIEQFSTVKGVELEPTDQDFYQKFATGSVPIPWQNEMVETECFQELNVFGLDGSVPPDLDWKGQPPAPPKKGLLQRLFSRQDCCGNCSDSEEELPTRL

With `CNS(=O)(=O)c1cccc(-c2nnc(SCC(=O)O)[nH]2)c1` [Compound 165], the IC50 under setting [1] is 18900 nM. Turning to `O=C(O)CSc1nnc(-c2cc(-c3cnn(CC(=O)O)c3)cc([N+](=O)[O-])c2)[nH]1` [Compound 95], the half-inhibitory concentration (IC50) is 2020 nM.

On to `Nc1cc(-c2ccc3ccccc3c2)cc(-c2nnc(SCC(=O)O)[nH]2)c1` [Compound 43], for which the IC50 is 433 nM. The same measure, in the same setting: the result for `O=C(O)CSc1nnc(-c2ccc3[nH]cnc3c2)[nH]1` [Compound 125] reads 6450 nM; that for `O=C(O)CSc1nnc(-c2cc(C(=O)Nc3ccccc3)cc([N+](=O)[O-])c2)[nH]1` [Compound 82], 761 nM. For `COc1ccc(Br)cc1-c1nnc(SCC(=O)O)[nH]1` [Compound 192], the IC50 under setting [1] worked out at 87000 nM. `O=C(O)CSc1nnc(-c2cccc(C(=O)Nc3cccc4[nH]ncc34)c2)[nH]1` [Compound 146]: the IC50 stood at 11400 nM. For `O=C(O)CSc1nnc(-c2ccc(-c3cncnc3)cc2)[nH]1` [Compound 134], the IC50 under setting [1] is 7450 nM. Still for that read-out and setting: next, `O=C(O)CSc1nnc(-c2cc(O)cc(O)c2)[nH]1` [Compound 127]: 6540 nM. `O=C(O)CSc1nnc(-c2ccc3ncccc3c2)[nH]1` [Compound 107]: the IC50 turned out to be 3390 nM. In the case of `Cn1ccc2ccc(-c3cc(-c4nnc(SCC(=O)O)[nH]4)cc([N+](=O)[O-])c3)cc21` [Compound 1], the IC50 worked out at 50 nM. Same read-out and setting: the result for `O=C(O)CSc1nnc(-c2ccc3nsnc3c2)[nH]1` [Compound 117] reads 4850 nM.

As for `O=C(O)CSc1nnc(-c2cc(-c3ccc4[nH]cc(-c5ccccc5)c4c3)cc([N+](=O)[O-])c2)[nH]1` [Compound 4], the IC50 was 67.4 nM. For the compound `Cn1nc(C(F)(F)F)cc1-c1cc(-c2nnc(SCC(=O)O)[nH]2)cc([N+](=O)[O-])c1` [Compound 97], the IC50 stood at 2490 nM. For the compound `CN(CCC#N)c1ccc(-c2nnc(SCC(=O)O)[nH]2)cc1` [Compound 179], under setting [1], the IC50 came out at 35300 nM. In the case of `O=C(O)CSc1nnc(-c2cccc(-c3cccs3)c2)[nH]1` [Compound 81], the IC50 under setting [1] was determined as 757 nM.

For the compound `O=C(O)CSc1nnc(-c2cc(C(=O)NCc3cccnc3)cc([N+](=O)[O-])c2)[nH]1` [Compound 116], the IC50 turned out to be 4780 nM.

`O=C(O)CSc1nnc(-c2ccc(N3CCCCC3)cc2F)[nH]1` [Compound 180]: the half-inhibitory concentration (IC50) under setting [1] came out at 35700 nM. On to `O=C(O)CSc1nnc(-c2cccc(C(=O)Nc3cccc4[nH]ccc34)c2)[nH]1` [Compound 143], for which the IC50 worked out at 9820 nM. Still for that read-out and setting: the result for `O=C(O)CSc1nnc(-c2ccc(OCc3ccccc3)c([N+](=O)[O-])c2)[nH]1` [Compound 86] reads 935 nM; that for `O=C(O)CSc1nnc(-c2cccc3c2OCO3)[nH]1` [Compound 164], 18500 nM; that for `O=C(O)CSc1nnc(-c2cc3c(cc2[N+](=O)[O-])OCO3)[nH]1` [Compound 212], over 58000 nM.

For `O=C(O)CSc1nnc(-c2cccc(C(=O)Nc3ccc4c(c3)NC(=O)CC4)c2)[nH]1` [Compound 160], the IC50 came out at 17300 nM. On the same count and under the same terms, the result for `CNS(=O)(=O)c1ccc(-c2cc(-c3nnc(SCC(=O)O)[nH]3)cc([N+](=O)[O-])c2)cc1` [Compound 62] reads 824 nM. For `O=C(O)CSc1nnc(-c2cccc(-c3ccc4ccccc4c3)c2)[nH]1` [Compound 39], the IC50 under setting [1] came out at 417 nM. As to `CN1CCOc2cc(-c3nnc(SCC(=O)O)[nH]3)ccc21` [Compound 166], the IC50 was 20200 nM. Same read-out and setting: next, `CC(C)Oc1ccc(-c2nnc(SCC(=O)O)[nH]2)cc1N` [Compound 190]: 80600 nM. As to `O=C(O)CSc1nnc(-c2ccc3occc3c2)[nH]1` [Compound 102], the IC50 stood at 3080 nM. As to `O=C(O)CSc1nnc(-c2cc(Br)cc([N+](=O)[O-])c2)n1CC(=O)O` [Compound 120], the IC50 came to 5060 nM.

Take `O=C(O)CSc1nnc(-c2cc(Br)cc([N+](=O)[O-])c2)[nH]1` [Compound 90]: the IC50 was 1350 nM. The same measure, in the same setting: the result for `CC(C)Oc1ccc(-c2nnc(SCC(=O)O)[nH]2)cc1[N+](=O)[O-]` [Compound 104] reads 3300 nM; that for `Cc1nn(C)cc1-c1cc(-c2nnc(SCC(=O)O)[nH]2)cc([N+](=O)[O-])c1` [Compound 79], 750 nM; that for `O=C(O)CSc1nnc(-c2cc(-c3cccc4cnccc34)cc([N+](=O)[O-])c2)[nH]1` [Compound 37], 359 nM. As to `COc1ccc(F)c(-c2nnc(SCC(=O)O)[nH]2)c1` [Compound 163], the IC50 under setting [1] was 18300 nM. In the case of `Cn1nccc1-c1cc(-c2nnc(SCC(=O)O)[nH]2)cc([N+](=O)[O-])c1` [Compound 88], the IC50 came to 1050 nM. On the same count and under the same terms, the result for `O=C(O)CSc1nnc(-c2cc(-c3cccnc3)cc(-c3ccc4ccccc4c3)c2)[nH]1` [Compound 31] reads 283 nM. Take `O=C(O)CSc1nnc(-c2ccc(O)c(O)c2)[nH]1` [Compound 119]: the concentration for half-maximal inhibition (IC50) under setting [1] was determined as 5020 nM. The same measure, in the same setting: the result for `N#Cc1cccc(-c2nnc(SCC(=O)O)[nH]2)c1` [Compound 96] reads 2310 nM.

Take `Cc1c(-c2ccc3c(ccn3C)c2)cc(-c2nnc(SCC(=O)O)[nH]2)cc1[N+](=O)[O-]` [Compound 9]: the IC50 was 103 nM. The same measure, in the same setting: the result for `N#Cc1cc2cc(-c3cc(-c4nnc(SCC(=O)O)[nH]4)cc([N+](=O)[O-])c3)ccc2[nH]1` [Compound 232] reads 184 nM; that for `O=C(O)CSc1nnc(-c2cc(-c3ccc4nccnc4c3)cc([N+](=O)[O-])c2)[nH]1` [Compound 50], 509 nM. Still for that read-out and setting: the result for `CC(C)Oc1ccc(-c2nnc(SCC(=O)O)n2CC(=O)O)cc1[N+](=O)[O-]` [Compound 193] reads over 200000 nM; that for `COc1ccc2cc(-c3cc(-c4nnc(SCC(=O)O)[nH]4)cc([N+](=O)[O-])c3)ccc2c1` [Compound 23], 199 nM. On to `CC(C)CNC(=O)c1cc(-c2nnc(SCC(=O)O)[nH]2)cc([N+](=O)[O-])c1` [Compound 100], for which the IC50 amounted to 2750 nM. With `O=C(O)CSc1nnc(-c2cccc(C(=O)Nc3ccc4ncccc4c3)c2)[nH]1` [Compound 161], the IC50 was 17500 nM.

In the case of `O=C(O)CSc1nnc(-c2cc(-c3cccc4[nH]ccc34)cc([N+](=O)[O-])c2)[nH]1` [Compound 8], the IC50 stood at 101 nM. Same read-out and setting: next, `Cn1ncc2cc(-c3cc(-c4nnc(SCC(=O)O)[nH]4)cc([N+](=O)[O-])c3)ccc21` [Compound 21]: 184 nM. In the case of `COc1ccc2cc(-c3cccc(-c4nnc(SCC(=O)O)[nH]4)c3)ccc2c1` [Compound 51], the IC50 under setting [1] came to 510 nM. For `O=C(O)CSc1nnc(-c2cc(-c3ccc4c(c3)OCO4)cc([N+](=O)[O-])c2)[nH]1` [Compound 30], the IC50 amounted to 275 nM.

With `O=C(O)CSc1nnc(-c2cccc(Oc3ccccc3)c2)[nH]1` [Compound 150], the IC50 turned out to be 12400 nM. The same measure, in the same setting: next, `Cn1c(-c2ccccc2)cc2cc(-c3cc(-c4nnc(SCC(=O)O)[nH]4)cc([N+](=O)[O-])c3)ccc21` [Compound 48]: 499 nM; `CS(=O)(=O)Nc1ccc(-c2cc(-c3nnc(SCC(=O)O)[nH]3)cc([N+](=O)[O-])c2)cc1` [Compound 47]: 473 nM.

Take `Cc1cccc(-c2nnc(SCC(=O)O)[nH]2)c1` [Compound 156]: the IC50 turned out to be 14400 nM. Still for that read-out and setting: next, `COc1ccc(-c2cc(-c3ccc4ccccc4c3)cc(-c3nnc(SCC(=O)O)[nH]3)c2)cn1` [Compound 66]: 1080 nM. On the same count and under the same terms, the result for `O=C(O)CSc1nnc(-c2cc(-c3ccoc3)cc(-c3ccc4ccccc4c3)c2)[nH]1` [Compound 56] reads 686 nM. As for `COc1cc(-c2nnc(SCC(=O)O)[nH]2)cc(O)c1OC` [Compound 168], the IC50 under setting [1] was 20700 nM. The same measure, in the same setting: next, `O=C(O)CSc1nnc(-c2cc(O)ccc2O)[nH]1` [Compound 123]: 6160 nM. Take `O=C(O)CSc1nnc(-c2cc(-c3cccc4[nH]ncc34)cc([N+](=O)[O-])c2)[nH]1` [Compound 10]: the IC50 amounted to 114 nM. For `O=C(O)CSc1nnc(-c2cc(-c3ccc4ccccc4c3)cc([N+](=O)[O-])c2)[nH]1` [Compound 6], the IC50 worked out at 78.4 nM.

For `O=C(O)CSc1nnc(-c2cc(NC(=O)c3ccco3)cc(-c3ccc4ccccc4c3)c2)[nH]1` [Compound 59], the 50% inhibitory concentration (IC50) was determined as 768 nM. On the same count and under the same terms, next, `Cn1ccc2cc(-c3cc(-c4nnc(SCC(=O)O)[nH]4)cc([N+](=O)[O-])c3)ccc21` [Compound 3]: 60 nM. As to `CN(C)c1cccc(-c2cc(-c3nnc(SCC(=O)O)[nH]3)cc([N+](=O)[O-])c2)c1` [Compound 53], the half-maximal inhibitory concentration (IC50) was 538 nM.

In the case of `COc1cc(-c2nnc(SCC(=O)O)[nH]2)cc([N+](=O)[O-])c1O` [Compound 158], under setting [1], the IC50 was found to be 15900 nM. As to `O=C(O)CSc1nnc(-c2cc(-c3ccc4ccccc4c3)cc(-c3cnccc3F)c2)[nH]1` [Compound 58], the IC50 is 751 nM.

Consider `Cc1cc(-c2cc(-c3ccc4ccccc4c3)cc(-c3nnc(SCC(=O)O)[nH]3)c2)cnc1C` [Compound 54], for which the IC50 came out at 598 nM.

For `O=C(O)CSc1nnc(-c2ccc(O)cc2O)[nH]1` [Compound 147], the IC50 under setting [1] worked out at 11600 nM.

As to `Cc1onc(-c2ccccc2)c1-c1cc(-c2nnc(SCC(=O)O)[nH]2)cc([N+](=O)[O-])c1` [Compound 84], the IC50 came to 879 nM.

On to `O=C(O)CSc1nnc(-c2cc(-c3ccc4[nH]ccc4c3)cc([N+](=O)[O-])c2)[nH]1` [Compound 5], for which the IC50 stood at 73.9 nM. With `O=C(O)CSc1nnc(-c2cccc(C(=O)Nc3ccc(Cl)cc3)c2)[nH]1` [Compound 148], the IC50 is 11700 nM. On the same count and under the same terms, next, `Cn1ccc(-c2cc(-c3nnc(SCC(=O)O)[nH]3)cc([N+](=O)[O-])c2)n1` [Compound 75]: 431 nM; `O=C(O)CSc1nnc(-c2ccc3c(c2)OC(F)(F)O3)[nH]1` [Compound 136]: 7930 nM; `COc1ccc2cc(-c3nnc(SCC(=O)O)[nH]3)ccc2c1` [Compound 76]: 653 nM. With `O=C(O)CSc1nnc(-c2cccc3cnccc23)[nH]1` [Compound 175], the half-inhibitory concentration (IC50) is 29600 nM.
